As a reminder, the melting point is the temperature, or range, at which the solid turns liquid.

Data set [1] has as its system cholesterol biosynthesis in immortal human hepatocyte cell line HepG2. In words: Metabolic labeling of immortal human hepatocytes (HepG2) with [3H] acetate, HPLC sterol analysis. Particulars: 100 μM inhibitor, HepG2 cells, [3H] acetate labeling, radiodetector HPLC; for quantity of radiolabelled cholesterol synthesized (inhibition of cholesterol biosynthesis): FIG. 3. The class given is cell-based. On the procedure: In accordance with the invention goal, the effect of the novel derivatives of pyridylethanol (phenylethyl) amine as ligands of sigma receptors on inhibition of cholesterol biosynthesis was assessed. An ex vivo method of metabolic labeling of immortal human hepatocytes was employed. The radioactively labelled early precursor of cholesterol [^3H] acetate was added to cells with or without addition of sigma ligands. Two independent experiments of metabolic labeling and sterol analysis were performed. […] The inhibitory effect on cholesterol biosynthesis of our novel ligands of sigma receptors BK-31.2 HBr, BK-33.2HBr, BK-35.2HBr and BK-38.2HBr), prepared according to examples 1 to 4, was evaluated. An ex vivo method of metabolic labeling of immortal human hepatocytes was applied. The radiolabel led precursor of cholesterol biosynthesis [^3H] acetate was added to the cells with or without the addition of sigma ligands. Finally, two independent experiments of metabolic labeling and sterol analysis were performed for each compound. The immortal human hepatocyte cell line HepG2 was split to the 75 cm^2 flasks in the ratio 1:2, two flasks for each condition. The cells were cultured in the DMEM culture ([…] 0.0626 […] 0.042 […]-thryptophan 0.016 g/l, L-[…]Na.2H2O 0.10379 […], choline chloride 0.004 g/l, folic acid 0.004 g/l, myo-inositol 0.0072 g/l, niacinamide 0.004 g/l, D-pantothenic acid 0.004 g/l, pyridoxal.HCl 0.004 g/l, riboflavin 0.0004 g/l, thiamine.HCl 0.004 g/l, calcium chloride.2H2O 0.265 g/l, ferric nitrate.9H2O 0.0001 g/l, magnesium sulfate [anhydride] 0.09767 g/l, potassium chloride 0.4 g/l, sodium chloride 6.4 g/l, monobasic sodium phosphate [anhydride] 0.109 g/l, glucose 4.5 g/l and phenol red, Na 0.0159 g/l) with 5% bovine serum and 1% L-glutamine. After 24 hours a medium with 100 μM ligands of sigma receptors (BK-31.2HBr, BK-33.2HBr, BK-35.2HBr and BK-38.2HBr) was added to the cells. The known inhibitors of cholesterol biosynthesis, 100 μM lovastatin or pravastatin, both the inhibitors of HMG-CoA reductase, and 100 μM fluconazole that inhibits enzymes of the P450 family to which lanosterol 14α-[…] (CYP51) also belongs, were used as positive controls. The cells grown in normal media without the addition of inhibitors served as negative control. The medium was exchanged after 24 hours. After 48 hours, 40 μCi [^3H] acetate was added per 1 ml of the medium (400 μCi per flask). The medium was aspirated after 24 hours, and the cells were tryptinized with 2 ml of trypsine. The cells were collected in 4 ml of the medium, centrifuged, and the cell pellet resuspended in distilled water (1 ml per flask). The cells were homogenized by freeze-thawing. Sterols were extracted from the homogenate. Protein concentration was determined in the homogenate with the Bio-rad reagent according to the recommended protocol of the producer. The homogenate was transferred into glass vials with an inert cover. 3 ml of the extraction solution (75% n-heptane:25% isopropanol (vol/vol)) was added. The closed vials were shaken vigorously on a shaker in the dark room for 2 hours. […] Until analysis, the samples were stored in the HPLC-grade solvent in dark and cold. The dried extracts were dissolved in 250 μl n-heptane. 100 μl aliquots were injected into the normal phase column (ChromSpher Si, 150 mm×3 mm, particle size 5 μm) with the mobile phase 99.5% n-heptane:0.5% isopropanol at flow rate 1 ml/min and room temperature. […] For determination of sterol after metabolic labeling, a radiodetector with the flow-through cell was used. […] G. Byskov, Rikhospitalitet, University of Copenhagen). The results were normalized according to the quantity of internal standard ergosterol and the concentration of proteins in the homogenate. The results represent the average value of two measurements with appropriate standard deviation.

Entries after “also recorded” stand apart in the source; their conditions may differ. Structures can show the parent of a compound that is named as a salt.

As for `CCCN(CCc1ccccc1)CC(O)c1cccnc1` (stereo not drawn) [BK-31.2HBr, 1-(3-pyridyl)-2-(N-(2-phenylethyl)-N-propylamino)ethanol dihydrobromide], the “quantity of radiolabelled cholesterol synthesized (inhibition of cholesterol biosynthesis)” value in data set [1] is “significantly lowered amounts of cholesterol”. As to `CC[C@H](C)C(=O)O[C@H]1C[C@@H](C)C=C2C=C[C@H](C)[C@H](CC[C@@H]3C[C@@H](O)CC(=O)O3)[C@H]21` [Lovastatin, lovastatin, reference compound], the “quantity of radiolabelled cholesterol synthesized (inhibition of cholesterol biosynthesis)” value in data set [1] is “completely blocked the biosynthesis”. `CN(CCc1ccc(Cl)c(Cl)c1)CC(O)c1cccnc1` (stereo not drawn) [BK-33.2HBr, 1-(3-pyridyl)-2-(N-(2-(3,4-dichlorophenyl)ethyl)-N-methylamino)ethanol dihydrobromide]: the “quantity of radiolabelled cholesterol synthesized (inhibition of cholesterol biosynthesis)” value in data set [1] is recorded as “significantly lowered amounts of cholesterol”. In the case of `CCCN(CCc1ccc(Cl)c(Cl)c1)CC(O)c1cccnc1` (stereo not drawn) [BK-35.2HBr, 1-(3-pyridyl)-2-(N-(2-(3,4-dichlorophenyl)ethyl)-N-propylamino)ethanol dihydrobromide], the “quantity of radiolabelled cholesterol synthesized (inhibition of cholesterol biosynthesis)” value was “most pronounced; also recorded: cholesterol quantity is diminished; also recorded: significantly lowered amounts of cholesterol; also recorded: greatest lowering of cholesterol” in data set [1] (dihydrobromide) and “highest potential to inhibit cholesterol biosynthesis” in data set [1] (listed as BK 35.2HBr, dihydrobromide). Besides, the “amount of intermediate sterols representing lanosterol or T-MAS (accumulation of early postsqualene intermediates)” value in data set [1] (FIG. 4, dihydrobromide) was “ten-fold increase; also recorded: increased”. Take `CN(CCc1ccc(Cl)c(Cl)c1)CC(O)c1ccncc1` (stereo not drawn) [BK-38.2HBr, 1-(4-pyridyl)-2-(N-(2-(3,4-dichlorophenyl)ethyl)-N-methylamino)ethanol dihydrobromide]: in data set [1], the “quantity of radiolabelled cholesterol synthesized (inhibition of cholesterol biosynthesis)” value is listed as “significantly lowered amounts of cholesterol”. The molecule `CCCN(CCc1ccccc1)CC(O)c1cccnc1` (stereo not drawn) (as salt: hydrobromid) [BK-31.2HBr, 1-(3-pyridyl)-2-(N-(2-phenylethyl)-N-propylamino)ethanol dihydrobromide] gave a melting point of 113 to 120 °C.

As to `OC(Cn1cncn1)(Cn1cncn1)c1ccc(F)cc1F` [Fluconazole, fluconazole, reference compound], in data set [1], the “quantity of radiolabelled cholesterol synthesized (inhibition of cholesterol biosynthesis)” value is recorded as “weaker inhibitor of cholesterol biosynthesis”.

The record behind these values is patent US7560474B2, “Derivatives of pyridilethanol (phenylethyl) amines as inhibitors of cholesterol biosynthesis, process for their preparation and pharmaceutical compositions containing them” (Lek Pharmaceuticals d.d., priority 2002, dated 2009).
